In US20260207530A1, “USE FOR AMELIORATION OF INTESTINAL DISEASES USING ALLULOSE” (SAMYANG CORPORATION, priority 2022, published 2026):

Assays:
Assay type in all cases: cell-based, human
polarized Caco-2 cells = assay: Transepithelial electrical resistance (TEER) in polarized Caco-2 cells treated with IFN-γ/TNF-α; settings: polarized Caco-2, IFN-γ 10 ng/ml 24 hours, allulose 1 hour, TNF-α 10 ng/ml 6 hours; vs TEER decreased by IFN-γ/TNF-α
Procedure: Transepithelial electrical resistance (TEER) was measured as an indicator of the adhesive strength between intestinal epithelial cells using allulose as an active ingredient, and the electrical resistance values of the upper and lower layers of intestinal cells for allulose materials were examined. Specifically, Caco-2 cells were seeded in the upper layer of a Transwell insert at a concentration of 5×10^4 cells/well, and 600 μl of medium without cells was added to the lower layer and cultured. The medium was replaced every 2 days, and cultured for 3 weeks to form polarization. After polarization formation, the upper layer with cells was pre-treated with IFN-γ (10 ng/ml) for 24 hours, allulose was treated at various concentrations for 1 hour, and TNF-α (10 ng/ml) was treated for 6 hours. After the reaction was completed, the electrical resistance value TEER was measured using a Millicell ERS-2 Voltohmmeter.

Caco-2 cells = assay: ROS accumulation with DCFH-DA fluorescent probe in Caco-2 cells with LPS-induced inflammation; settings: Caco-2, LPS 1 μg/ml and allulose 5, 10, 20 mM 12 h
Procedure: Caco- 2 cells were seeded at 5×10^4 cells/well in 96-well plates and cultured. After simultaneous treatment with LPS (1 μg/ml) and allulose at concentrations of 5 mM, 10 mM, and 20 mM, the cells were cultured for 12 h under conditions of 5% CO2 and 37° C. After removing the culture supernatant, DCF-DA was added to the medium at a concentration of 20 μM and cultured in an incubator for 30 min. After culture, the cells were washed with PBS and the amount of ROS production was measured using fluorescence absorbance at excitation of 488 nm and emission of 535 nm.

[1] = system: mucin genes (MUC2, MUC5AC, MUC5B); assay: Mucin gene expression in HT-29 cells with LPS-induced inflammation (RT-PCR); settings: HT-29, RT-PCR, allulose 5, 10, 20 mM, LPS 1 μg/ml 24 hours
Procedure: The effect of allulose on expression level of mucins was confirmed in HT-29 cells with LPS-induced inflammation. Specifically, HT-29 cells were seeded at a concentration of 2×10^5 cells/well in 24-well plates and cultured in an incubator at 37° C. and % CO2 for 6-7 days. Allulose dissolved in RPMI 1640 medium of a HT-29 culture medium, was simultaneously treated at concentrations of 5, 10, and 20 mM, and after 8 hours, LPS (1 μg/ml) was treated to induce inflammation for 24 hours. Afterwards, the cells were washed with PBS, RNA was extracted from the cells using Trizol, and cDNA was synthesized using a cDNA synthesis kit. Then, the expression level of the gene was assessed by qRT-PCR using primers produced for mucin genes (MUC2, MUC5AC, MUC5B) that protected the intestinal mucosa. The PCR conditions used were denaturation at 95° C. for 15 seconds, annealing at 62° C. for 30 seconds, and elongation at 72° C. for 1 minute.

ZO-1 and Occludin = assay: Expression of tight junction factors ZO-1 and Occludin in Caco-2 cells with LPS-induced inflammation (RT-PCR, Western blot); settings: Caco-2, allulose 5, 10, 20 mM 6 hours, then LPS 1 μg/ml 12 hours; vs level decreased by inflammation
Procedure: Caco-2 cells were cultured in 24-well plates at a density of 2×10^5 cells/well. The medium was replaced every other day, and the cells were cultured for 6 hours after treatment with 5, 10, and 20 mM allulose, and reacted for 12 hours after treatment with LPS (1 μg/ml). After extracting RNA from the cells using Trizol, cDNA was synthesized using a cDNA synthesis kit, and the gene expression level was confirmed by qRT-PCR using primers designed for each gene. The PCR conditions used were denaturation at 95° C. for 15 seconds, annealing at 62° C. for 30 seconds, and elongation at 72° C. for 1 minute. For protein expression analysis, proteins were extracted from the cultured cells using RIPA lysis buffer. The extracted proteins were pretreated by reacting at 95° C. for 5 minutes, and then separated by electrophoresis on SDS-PAGE. After transferring the proteins to the PVDF membrane, they were blocked in a 5% (w/v) BSA solution for 1 hour, and the primary antibodies for each factor were diluted 1:1000 in a 5% (w/v) BSA solution and reacted at 4° C. for 1 day. […] The bands were detected using a LAS 4000 system, and the expression density was calculated using image detection software (image J software) to calculate the expression amount.

[2] = system: TLR4/NF-κB signaling and TLR4/MAPK signaling; assay: Expression of TLR4/NF-κB and TLR4/MAPK signaling factors in HT-29 cells with LPS-induced inflammation (RT-PCR, Western blot); settings: HT-29, allulose 5, 10, 20 mM, LPS 1 μg/ml
Procedure: HT-29 cells were treated simultaneously with LPS (1 μg/ml) and allulose, and reacted for 8 hours. Specifically, HT-29 cells were seeded at a concentration of 2×10^5 cells/well in 24-well plates and cultured in an incubator at 37° C. and % CO2 for 6-7 days. Allulose dissolved in RPMI 1640 medium, which is a HT-29 culture medium, was treated simultaneously at concentrations of 5, 10, and 20 mM, and after 8 hours, LPS (1 μg/ml) was treated to induce inflammation for 24 hours.
The gene and protein expression levels of Factors involved in TLR4/NF-κB signaling and TLR4/MAPK signaling were confirmed using RT-PCR and Western blot. After extracting RNA from cells using Trizol, cDNA was synthesized using a cDNA synthesis kit, and the gene expression levels were measured by qRT-PCR using primers designed for each gene. The PCR conditions used were denaturation at 95° C. for 15 seconds, annealing at 62° C. for 30 seconds, and elongation at 72° C. for 1 minute. For protein expression analysis, proteins were extracted from cultured cells using RIPA lysis buffer. The extracted proteins were pretreated by reacting at 95° C. for 5 minutes, and then separated by electrophoresis in SDS-PAGE. After transferring the protein to the PVDF membrane, it was blocked in 5% (w/v) BSA solution for 1 hour, and the primary antibody for each factor was diluted 1:1000 with 5% (w/v) BSA solution and reacted at 4° C. for 1 day. The membrane reacted with the primary antibody was reacted with the secondary antibody in tris-buffered saline solution containing 0.1% (v/v) Tween 20 for 1 hour at room temperature. The bands were detected using the LAS 4000 system, and the expression density was calculated using image detection software (image J software) to calculate the expression amount.

TLR4/NF-κB signaling = assay: Expression of TLR4/NF-κB signaling factors in Caco-2 cells with LPS-induced inflammation (RT-PCR, Western blot); settings: Caco-2, allulose 5, 10, 20 mM, LPS 1 μg/ml 24 hours
Procedure: The anti-inflammatory effect of allulose was confirmed in Caco-2 cells with inflammation induced with LPS (Lipopolysaccharide). The gene and protein expression levels of factors (p50, p65, TLR4, MyD88, IKKα, IKKβ, IKβα, IRAK4, TRAF6) related to TLR4/NF-κB signaling, which is a signaling that mediates the inflammatory response, were confirmed through RT-PCR and Western blot.
Specifically, Caco-2 cells were cultured and differentiated at a density of 2×10^5 cells/well in 24-well plates and simultaneously treated with allulose dissolved in MEM medium as culture medium of Caco-2 cells, at concentrations of 5, 10, and 20 mM. After 6 hours, LPS (1 μg/ml) was treated to induce inflammation for 24 hours. The culture was performed in an incubator at 5% CO2 and 37° C.
As a negative control, Caco-2 cells not treated with LPS were used. As a positive control, the differentiated Caco-2 cells which were treated with LPS to induce inflammation but not treated with allulose were used.
After extracting RNA from the cells using Trizol, cDNA was synthesized using a cDNA synthesis kit, and the expression level of the genes was confirmed by qRT-PCR using primers designed for each gene. The PCR conditions used were denaturation at 95° C. for 15 seconds, annealing at 62° C. for 30 seconds, and an elongation process at 72° C. for 1 minute. For protein expression analysis, proteins were extracted from the cultured cells using RIPA lysis buffer. The extracted proteins were pretreated by reaction at 95° C. for 5 minutes, and then separated by electrophoresis on SDS-PAGE. After the proteins were transferred to a PVDF membrane, they were blocked in a 5% (w/v) BSA solution for 1 hour, and the primary antibodies for each factor were diluted 1:1000 in a 5% (w/v) BSA solution and reacted at 4° C. for one day. […] The bands were detected using a LAS 4000 system, and the expression density was calculated using image detection software (Image J software) to calculate the expression amount.

[3] = system: Prostaglandin E2 and COX-2; assay: Prostaglandin E2 (ELISA) and COX-2 (RT-PCR) in Caco-2 cells with LPS-induced inflammation; settings: allulose 5, 10, 20 mM 6 hours, then LPS 1 μg/ml 12 hours
Procedure: Caco-2 cells were cultured in 24-well plates at a density of 2×10^5 cells/well. The medium was replaced every two days, and allulose was simultaneously treated at concentrations of 5 mM, 10 mM, and 20 mM, and cultured for 6 hours after treatment and reacted for 12 hours after LPS (1 μg/ml) treatment. The supernatant was used for ELISA analysis, and RNA was extracted from the cells using Trizol, and cDNA was synthesized using a cDNA synthesis kit. Then, the expression level of the genes was assessed by qRT-PCR using primers designed for each gene. The PCR conditions used were denaturation at 95° C. for 15 seconds, annealing at 62° C. for 30 seconds, and an elongation process at 72° C. for 1 minute.

Q: What does the source list for `O=C(CO)C(O)C(O)C(O)CO` (centres unmarked) [allulose]?
A: electrical resistance value (TEER) (polarized Caco-2 cells): increased; accumulated ROS (Caco-2 cells): reduced; expression level of MUC2 [1]: decreased; expression level of MUC5AC [1]: decreased; expression level of MUC5B [1]: decreased; mRNA and protein expression levels of Occludin (ZO-1 and Occludin): increased; mRNA and protein expression levels of ZO-1 (ZO-1 and Occludin): increased; MAPK signal (p38, p-p38, JNK, p-JNK, c-Jun, p-c-Jun, c-Fos, p-c-Fos) [2]: decreased; MyD88, IRAK4, TRAF6 expression [2]: decreased; NF-κB signal (p50, p65, p-p65, Ikkα, Ikkβ, p-Ikkαβ, Ikβα, p-Ikβα) [2]: decreased; expression level of COX-2 [2]: decreased; expression level of TLR4 [2]: decreased; expression amount of NF-κB p65/p50 (TLR4/NF-κB signaling): decreased; expression amount of TLR4 activated by LPS (TLR4/NF-κB signaling): decreased; expression level of factors related to TLR4/NF-κB signaling (mRNA and protein) (TLR4/NF-κB signaling; vs LPS control without allulose): decreased; concentration of Prostaglandin E2 ([3]; Caco-2, ELISA of supernatant): decreased; expression level of COX-2 ([3]; Caco-2, RT-PCR): decreased
